Measurements taken from the NIST ThermoML archive (doi:10.1016/j.jct.2013.09.035).

Assay: wn = mass fraction of the nth substance listed
Conditions: Liquid, Vibrating tube method, w2 = 0.5

CCOC(F)(F)C(F)(C(F)(F)F)C(F)(F)F [nonafluoroisobutyl ethyl ether] + CCOC(F)(F)C(F)(F)C(F)(F)C(F)(F)F
Conditions	mass density [kg/m3]
283.47 K, 10000 kPa	1482.27
283.48 K, 100 kPa	1457.82
283.48 K, 1000 kPa	1460.24
283.48 K, 3000 kPa	1465.3
283.48 K, 5000 kPa	1470.22
283.48 K, 25000 kPa	1513.47
283.48 K, 30000 kPa	1522.25
283.49 K, 15000 kPa	1493.18
283.49 K, 20000 kPa	1503.4
283.49 K, 40000 kPa	1538.97
283.49 K, 50000 kPa	1553.61
283.49 K, 80000 kPa	1591.2
283.49 K, 90000 kPa	1602.13
283.49 K, 100000 kPa	1612.51
283.5 K, 60000 kPa	1567.59
283.5 K, 70000 kPa	1579.58
293.33 K, 40000 kPa	1520.74
293.33 K, 50000 kPa	1536.34
293.34 K, 100 kPa	1433.67
293.34 K, 3000 kPa	1442.2
293.34 K, 5000 kPa	1447.74
293.34 K, 10000 kPa	1460.66
293.34 K, 25000 kPa	1493.61
293.34 K, 80000 kPa	1575.81
293.35 K, 15000 kPa	1472.51
293.35 K, 20000 kPa	1483.44
293.35 K, 70010 kPa	1563.65
293.35 K, 100000 kPa	1597.56
293.36 K, 1000 kPa	1436.34
293.36 K, 30000 kPa	1503.18
293.36 K, 60000 kPa	1550.72
293.36 K, 90000 kPa	1586.86
303.23 K, 100 kPa	1410.99
303.23 K, 1000 kPa	1413.95
303.23 K, 3000 kPa	1420.34
303.23 K, 5000 kPa	1426.43
303.23 K, 10000 kPa	1440.51
303.23 K, 15000 kPa	1453.28
303.23 K, 30000 kPa	1485.94
303.23 K, 40000 kPa	1504.31
303.23 K, 70000 kPa	1549.38
303.23 K, 90000 kPa	1573.69
303.23 K, 100000 kPa	1584.73
303.24 K, 20000 kPa	1464.95
303.24 K, 25000 kPa	1475.81
303.24 K, 50000 kPa	1520.78
303.24 K, 60000 kPa	1535.65
303.24 K, 80000 kPa	1561.98
313.14 K, 40000 kPa	1487.04
313.15 K, 25000 kPa	1456.84
313.15 K, 50000 kPa	1504.3
313.15 K, 60000 kPa	1519.95
313.16 K, 15000 kPa	1432.86
313.16 K, 20000 kPa	1445.3
313.16 K, 30000 kPa	1467.53
313.17 K, 1000 kPa	1390.04
313.17 K, 5000 kPa	1403.68
313.17 K, 10000 kPa	1418.95
313.17 K, 100000 kPa	1571.77
313.18 K, 100 kPa	1386.8
313.18 K, 3000 kPa	1397.04
313.18 K, 90000 kPa	1559.98
313.19 K, 70000 kPa	1535.1
313.19 K, 80000 kPa	1547.94
323.03 K, 70000 kPa	1522.41
323.03 K, 79990 kPa	1535.93
323.03 K, 90000 kPa	1548.47
323.03 K, 100000 kPa	1560.39
323.04 K, 15000 kPa	1415.6
323.04 K, 20000 kPa	1429.06
323.04 K, 25000 kPa	1441.36
323.04 K, 30000 kPa	1452.73
323.04 K, 40000 kPa	1473.17
323.04 K, 50000 kPa	1491.32
323.04 K, 60000 kPa	1507.67
323.05 K, 100 kPa	1365.33
323.05 K, 1000 kPa	1368.99
323.05 K, 3000 kPa	1376.71
323.05 K, 5000 kPa	1384.07
323.05 K, 10000 kPa	1400.75
332.93 K, 80000 kPa	1522.17
332.93 K, 90000 kPa	1535.21
332.93 K, 100000 kPa	1547.28
332.94 K, 15000 kPa	1395.61
332.94 K, 20000 kPa	1409.99
332.94 K, 25000 kPa	1423.08
332.94 K, 30000 kPa	1435.1
332.94 K, 40000 kPa	1456.69
332.94 K, 50000 kPa	1475.63
332.94 K, 60000 kPa	1492.7
332.94 K, 70000 kPa	1508.09
332.95 K, 100 kPa	1340.66
332.95 K, 1000 kPa	1344.7
332.95 K, 3000 kPa	1353.32
332.95 K, 5000 kPa	1361.37
332.95 K, 10000 kPa	1379.59
342.83 K, 100 kPa	1316.31
342.83 K, 3000 kPa	1330.5
342.84 K, 1000 kPa	1320.87
342.84 K, 5000 kPa	1339.38
342.85 K, 10000 kPa	1359.29
342.85 K, 15000 kPa	1376.59
342.85 K, 20000 kPa	1391.96
342.86 K, 25000 kPa	1405.93
342.86 K, 30000 kPa	1418.67
342.86 K, 40000 kPa	1441.37
342.87 K, 60000 kPa	1479.04
342.87 K, 69990 kPa	1494.97
342.87 K, 80000 kPa	1509.52
342.88 K, 50000 kPa	1461.22
342.88 K, 90000 kPa	1522.96
342.88 K, 100000 kPa	1535.5
352.77 K, 3000 kPa	1307.3
352.78 K, 1000 kPa	1296.47
352.78 K, 5000 kPa	1317.18
352.78 K, 10000 kPa	1339.03
352.78 K, 15000 kPa	1357.74
352.78 K, 20000 kPa	1374.27
352.78 K, 25000 kPa	1389.09
352.78 K, 30000 kPa	1402.65
352.78 K, 40000 kPa	1426.56
352.78 K, 50000 kPa	1447.34
352.78 K, 60000 kPa	1465.76
352.79 K, 70000 kPa	1482.51
352.79 K, 80000 kPa	1497.6
352.79 K, 90000 kPa	1511.48
352.79 K, 100000 kPa	1524.4
362.72 K, 1000 kPa	1270.63
362.72 K, 3000 kPa	1282.75
362.73 K, 5000 kPa	1293.79
362.73 K, 10000 kPa	1317.75
362.73 K, 15000 kPa	1338.07
362.73 K, 20000 kPa	1355.77
362.73 K, 25000 kPa	1371.52
362.73 K, 30000 kPa	1385.83
362.73 K, 40000 kPa	1410.97
362.73 K, 50000 kPa	1432.73
362.73 K, 60000 kPa	1451.97
362.73 K, 70000 kPa	1469.11
362.73 K, 80000 kPa	1484.73
362.73 K, 90000 kPa	1499.1
362.73 K, 100000 kPa	1512.38
